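Grown in 96-well plates, cells were treated for 48 hours with each compound at five concentrations. Insufficient inhibition: endpoint recorded as highest concentration tested. The concentration for full growth arrest is given as TGI.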
Experiments:
Experiment in all cases: inhibition of tumour cell growth, NCI panel, 48 h
SNB-19 CNS = test system: SNB-19 CNS
NCI/ADR-RES ovarian = test system: NCI/ADR-RES ovarian
SF-268 CNS = test system: SF-268 CNS
HOP-62 NSCLC = test system: HOP-62 NSCLC
T-47D breast = test system: T-47D breast
COLO 205 colon = test system: COLO 205 colon
EKVX NSCLC = test system: EKVX NSCLC
MDA-MB-231 breast = test system: MDA-MB-231 breast
HCC-2998 colon = test system: HCC-2998 colon
NCI-H460 lung = test system: NCI-H460 lung
PC-3 prostate = test system: PC-3 prostate
SW-620 colon = test system: SW-620 colon
LOX IMVI melanoma = test system: LOX IMVI melanoma
SN12C renal = test system: SN12C renal
MDA-N = test system: MDA-N
TK-10 renal = test system: TK-10 renal
M14 melanoma = test system: M14 melanoma
NCI-H23 lung = test system: NCI-H23 lung
UO-31 renal = test system: UO-31 renal
SK-MEL-28 melanoma = test system: SK-MEL-28 melanoma
OVCAR-5 ovarian = test system: OVCAR-5 ovarian
HCT-15 colon = test system: HCT-15 colon
K-562 leukemia = test system: K-562 leukemia
SF-539 CNS = test system: SF-539 CNS
HS 578T breast = test system: HS 578T breast
HCT-116 colon = test system: HCT-116 colon
ACHN renal = test system: ACHN renal
SK-MEL-5 melanoma = test system: SK-MEL-5 melanoma
786-0 renal = test system: 786-0 renal
DU-145 prostate = test system: DU-145 prostate
CAKI-1 renal = test system: CAKI-1 renal
NCI-H226 lung = test system: NCI-H226 lung
UACC-257 melanoma = test system: UACC-257 melanoma
OVCAR-3 ovarian = test system: OVCAR-3 ovarian
OVCAR-8 ovarian = test system: OVCAR-8 ovarian
KM12 colon = test system: KM12 colon
SK-MEL-2 melanoma = test system: SK-MEL-2 melanoma
BT-549 breast = test system: BT-549 breast
RXF 393 renal = test system: RXF 393 renal
OVCAR-4 ovarian = test system: OVCAR-4 ovarian
MALME-3M melanoma = test system: MALME-3M melanoma
SF-295 CNS = test system: SF-295 CNS
MDA-MB-435 = test system: MDA-MB-435
SK-OV-3 ovarian = test system: SK-OV-3 ovarian
U251 CNS = test system: U251 CNS
CCRF-CEM leukemia = test system: CCRF-CEM leukemia
MCF7 breast = test system: MCF7 breast
IGROV1 ovarian = test system: IGROV1 ovarian
HT29 colon = test system: HT29 colon
A549 NSCLC = test system: A549 NSCLC
MOLT-4 leukemia = test system: MOLT-4 leukemia
SR leukemia = test system: SR leukemia
RPMI-8226 leukemia = test system: RPMI-8226 leukemia
A498 renal = test system: A498 renal
UACC-62 melanoma = test system: UACC-62 melanoma
HOP-92 NSCLC = test system: HOP-92 NSCLC
NCI-H522 lung = test system: NCI-H522 lung
SNB-75 CNS = test system: SNB-75 CNS

Measured: TGI

C=C(C)c1nc(C#N)c(N)o1
not listed: A498 renal | UACC-62 melanoma | HOP-92 NSCLC | NCI-H522 lung | SNB-75 CNS
> 100 µM: all other assays above

CC12c3c4cccc3Oc3cc(N)cc(c31)Oc1cc(N)cc(c12)O4
13 µM: SK-MEL-5 melanoma | BT-549 breast
28.1 µM: HS 578T breast
32 µM: OVCAR-8 ovarian
> 40.7 µM: A549 NSCLC
9.44 µM: HCT-116 colon
> 51.5 µM: K-562 leukemia
16.1 µM: OVCAR-5 ovarian
24.9 µM: CAKI-1 renal
27.6 µM: SK-MEL-28 melanoma
40.2 µM: MOLT-4 leukemia
> 37.6 µM: NCI-H460 lung
> 100 µM: U251 CNS
13.6 µM: NCI-H226 lung | IGROV1 ovarian
40.3 µM: HT29 colon
23.9 µM: OVCAR-4 ovarian
14.8 µM: SK-OV-3 ovarian
18.3 µM: UACC-257 melanoma
8.72 µM: 786-0 renal
7.04 µM: OVCAR-3 ovarian
10.5 µM: SF-268 CNS
> 36.7 µM: HCT-15 colon
9.52 µM: EKVX NSCLC
3.59 µM: MDA-N
> 40.6 µM: MCF7 breast
> 39.7 µM: KM12 colon
14.7 µM: SNB-75 CNS
23.1 µM: ACHN renal
9.2 µM: SF-295 CNS
34 µM: A498 renal
74.5 µM: HOP-92 NSCLC
> 39 µM: HCC-2998 colon
19.6 µM: M14 melanoma
> 50.6 µM: UO-31 renal
11.8 µM: SF-539 CNS
18.5 µM: UACC-62 melanoma
> 26.3 µM: NCI/ADR-RES ovarian
25.3 µM: TK-10 renal
4.4 µM: MDA-MB-435
3.74 µM: CCRF-CEM leukemia
10.8 µM: MALME-3M melanoma
> 41.9 µM: LOX IMVI melanoma
26.5 µM: SK-MEL-2 melanoma
2.67 µM: RXF 393 renal
4.74 µM: NCI-H522 lung
28.6 µM: SN12C renal
12.1 µM: COLO 205 colon | PC-3 prostate
> 38.1 µM: RPMI-8226 leukemia
38.5 µM: SNB-19 CNS
27.4 µM: MDA-MB-231 breast
> 48.5 µM: T-47D breast
> 46 µM: NCI-H23 lung
18.2 µM: HOP-62 NSCLC
22.6 µM: all other assays above

COc1cc2nc3c(=C(C#N)C#N)c4ccccc4n3c(=O)c2cc1OC
not listed: SK-MEL-28 melanoma | MALME-3M melanoma
> 100 µM: all other assays above

COC(=O)Cc1c(-c2[nH]c3ccccc3c2CC(=O)OC)[nH]c2ccccc12
> 41.2 µM: OVCAR-3 ovarian
> 100 µM: all other assays above

Nc1nc(N)c2ncn(-c3ccc(Br)cc3)c2n1
> 45.3 µM: CAKI-1 renal
50.8 µM: NCI/ADR-RES ovarian
> 59.8 µM: HOP-62 NSCLC
> 44.9 µM: MALME-3M melanoma
25.3 µM: HS 578T breast
46.5 µM: SF-539 CNS
> 50.6 µM: UO-31 renal
34.7 µM: CCRF-CEM leukemia
> 61.9 µM: A498 renal
> 63.8 µM: SF-268 CNS
> 56.1 µM: RPMI-8226 leukemia
> 78.6 µM: RXF 393 renal
88.4 µM: EKVX NSCLC
41.5 µM: SK-MEL-2 melanoma | IGROV1 ovarian
> 38.1 µM: HOP-92 NSCLC
> 45.7 µM: KM12 colon
> 42.5 µM: NCI-H522 lung
> 69.2 µM: M14 melanoma
37.3 µM: MOLT-4 leukemia
> 86.1 µM: MDA-MB-231 breast
> 57.1 µM: MCF7 breast
3.2 µM: SR leukemia
> 55.7 µM: OVCAR-8 ovarian
38.3 µM: K-562 leukemia
31.2 µM: SNB-75 CNS
> 65 µM: PC-3 prostate
> 66.8 µM: UACC-62 melanoma
> 45.6 µM: HT29 colon
> 73.1 µM: OVCAR-5 ovarian
> 64 µM: OVCAR-3 ovarian
> 93.2 µM: NCI-H23 lung
73.9 µM: SK-OV-3 ovarian
> 52.8 µM: ACHN renal
75.6 µM: SN12C renal
> 100 µM: all other assays above
